Test [1] relates to JCR rat. Put plainly: Intraperitoneal glucose tolerance test / glucose disposal in JCR rats. Type of test: in vivo. Particulars: for Glucose Disposal: individual rat, 12 weeks daily treatment via water. The procedure:
In order to test the effects of chromium and biotin, alone and in combination, on insulin sensitivity, a rodent model of “Syndrome X” was employed. Specifically, the JCR rat was utilized as it is a well-established model of obesity and insulin resistance.
After a baseline phase where accurate weights, body composition, and food intake were assessed, the animals were randomized to either control, CrPic alone, biotin alone, or CrPic/Biotin (See FIG. 5). Animals were weighed weekly and nutrients were given via daily water feeding at a specified dose/kg body weight. A 12-week period of daily treatment of animals was accomplished.
At specified time points during the study, glucose and insulin assessments were made. Specific assessments of carbohydrate metabolism were determined using an intraperitoneal glucose tolerance test and an insulin tolerance test. Animals were studied at 6 and 12 weeks with randomization. The specific metabolic testing was as follows:
Following baseline glucose and insulin measurements, 1.5 mg D50W per gram of body weight were given intraperitoneally. Tailsticks were initiated at 30, 60, 90, and 120 minutes following administration of glucose. The areas under curve for insulin and glucose were assessed. Eight animals in each group at 12 weeks were studied. Table 1 details the amount of glucose disposal for animals treated with CrPic and/or biotin at various dosages. Note, “L” represents the lean control; “O-contr” are the obese control rats; “LB” connotes low biotin treatments; “HB” represents high biotin treatments; “LC” and “HC” represent low and high doses of chromium, respectively. FIG. 6 is a graphic representation of the results of the IPGTT studies. […]

Test [2] has as its system glycogen synthetase (GS) mRNA. Put plainly: Glycogen synthetase (GS) mRNA expression in HSMC. Type of test: cell-based, human. Particulars: CrPic 10 ng/ml, biotin 10 pm, FIG. 4B. Here is the method:
To evaluate the cellular mechanism by […] biotin enhance glycogen synthesis, glycogen synthetase (“GS”) mRNA and glycogen synthesis were assessed. HSMC was incubated with CrPic at 10 ng/ml, biotin at 10 pm, and both CrPic and biotin. […] When evaluating GS mRNA levels, chromium increased gene expression of GS by 26%, biotin by 15%, and the combination by 33%. […] RNA Preparation: Total RNA from the skeletal muscle biopsy was isolated using guanium […], phenol-chloroform extraction, and alcohol precipitation. RNA sample was quantified by spectrophotometer. The absorption ratio (260:280 nm) was between 1.8 to 2.0 for all preparations and the integrity of the RNA was verified on agarose gel colored with ethidium bromide. For RT-PCR, fresh isolated total RNA was used. GS mRNA Level Analysis: GS mRNA levels were analyzed using one-step RT-PCR kits (Clontech Laboratories, Inc., Palo Alto, Calif.). GS first-strand CDNA synthesis was performed from 1 μh of total RNA with 1×[…] plus enzyme mix in 40 mM Tricine, 20 mM Kcl, 3 mM MgCl2, 3.75 ug/ml BSA, 0.2 mM deoxynucleoside triphosphates, 400 pmol of oligo(dt) primer, and 200 pm GS primers (Sense [NT], antisense [NT]) in a final volume of 50 μl. The reaction mixtures were subjected to incubations for 60 min. at 50° C. in the Eppendorf Master gradient cycler (Westbury, N.Y.). […] The band densities were evaluated (Alpha Imager 2000, San Leandro, Calif.). […]

Test [3] relates to JCR rat. Put plainly: Fasting plasma insulin in obese JCR rats. Particulars: treated three months, end of study, FIG. 7. The test is classed as in vivo. Here is the method:
At specified time points during the study, glucose and insulin assessments were made. Specific assessments of carbohydrate metabolism were determined using an intraperitoneal glucose tolerance test and an insulin tolerance test. Animals were studied at 6 and 12 weeks with randomization. […] Specifically, CrPic versus control solutions were given in hyperinsulinemic, insulin-resistant, obese JCR rats. The study was initiated on animals at approximately 4 months of age, and animals were treated specifically for three months. […] 9). […] The improvement in insulin sensitivity was associated with a reduction in total. cholesterol levels compared to lean animals (See, e.g., Table 2, and FIGS. 10 & 11). The effect of the combination of chromium and biotin on lipid levels in the animal study is detailed in Table 2. Specifically, the effect of chromium and biotin on cholesterol levels, high density lipid cholesterol (HDL-ch) levels, and triglyceride levels are recorded in Table 2.

The test system of test [4] is diabetic and obese pre-diabetic subjects. Particulars: cited from earlier work.
Test [5] deals with human skeletal muscle culture (HSMC). Put plainly: Glucose uptake in human skeletal muscle culture. The test is classed as cell-based. The following applies: FIG. 2.
The subject of another test is JCR:LA-corpulent rat. Particulars: obese, hyperinsulinemic, insulin resistant rodent model; cited from earlier work.

“And” between values parts separate entries of the source, which are not always exact repeats. Identical values can stand only once.

On to chromium picolinate [CrPic], for which the “Glucose Disposal” value with JCR rat [1] (listed as HC) was 2.928 mg/dL/min and 3.25 mg/dL/min and 3.224 mg/dL/min and 3.011 mg/dL/min and 2.821 mg/dL/min; in the test with JCR rat [1] (listed as LC), 2.334 mg/dL/min and 2.109 mg/dL/min and 2.066 mg/dL/min. Also, in the test on JCR rat [1] (mean per treatment, 12 weeks), the “Glucose Disposal, value per treatment group” value was found to be 2.928 mg/dL/min. Besides, the “glucose response to intraperitoneal glucose tolerance test” value in the test on JCR rat [1] (obese JCR rats, FIG. 8A) is “significantly improved glucose response”. In addition, the “insulin response to intraperitoneal glucose tolerance test” value in the test on JCR rat [1] (obese rat, FIG. 8B) is on record as “significantly lowered insulin response”. The “increase of gene expression of GS (GS mRNA levels)” value in test [2] is 26%. Further, the fasting plasma insulin result with JCR rat [3] is given as “significantly lower fasting plasma insulin”. The glucose levels result in test [4] (Chinese diabetics) was “significantly lowered”. In test [4] (Chinese diabetics), the insulin levels entry was “significantly lowered”. Also, the insulin sensitivity entry in test [4] (obese, pre-diabetic subjects, 1000 μg per day) was “enhance insulin sensitivity”; with JCR:LA-corpulent rat, “very robust effect on improving”. Besides, the glucose uptake result in test [5] was “enhances glucose uptake”. Besides, the lipid profiles entry in the test on JCR:LA-corpulent rat is “very robust effect on improving”.

(Values after patent publication US20050214385A1, “Chromium/biotin treatment of dyslipidemia and diet-induced post prandial hyperglycemia” (priority 2001, published 2005).)
